Reference: PubChem BioAssay AID1259407 (Chemical Carcinogenesis Research Information System (CCRIS), 2018)
Calls of active or inactive are those of the source. No rule for the calls is given here.

Test system: CCRIS mutagenicity, Ames/micronucleus/aberration tests
Assay: CCRIS mutagenicity studies
[1] = Test System: AMES SALMONELLA TYPHIMURIUM, Strain/Indicator: TA98, Metabolic Activation: NONE, Method: STANDARD PLATE
[2] = Test System: E. COLI, Strain/Indicator: WP2 UVRA, Metabolic Activation: NONE, Method: STANDARD PLATE

O=C1O[C@@H]2[C@@H](O)CO[C@]2(O)[C@@]1(O)Cc1c[nH]c2ccccc12
mutagenic call [1]: inactive; negative | mutagenic call (Test System: AMES SALMONELLA TYPHIMURIUM, Strain/Indicator: TA98, Metabolic Activation: RAT, LIVER, S-9, PCB, Method: STANDARD PLATE): inactive; negative | mutagenic call (Test System: AMES SALMONELLA TYPHIMURIUM, Strain/Indicator: TA100, Metabolic Activation: NONE, Method: STANDARD PLATE): inactive; negative | mutagenic call (Test System: AMES SALMONELLA TYPHIMURIUM, Strain/Indicator: TA100, Metabolic Activation: RAT, LIVER, S-9, PCB, Method: STANDARD PLATE): inactive; negative

NC(=O)N/N=C/c1ccc([N+](=O)[O-])o1
mutagenic call (End Point: IN VITRO CHROMOSOMAL ABERRATIONS, Test System: CHO CELLS, Metabolic Activation: NONE): active; positive | mutagenic call (End Point: IN VITRO CHROMOSOMAL ABERRATIONS, Test System: CHO CELLS, Metabolic Activation: RAT, LIVER, S-9, AROCLOR 1254): active; positive; precipitation occurred at 500 ug/ml | mutagenic call (Test System: AMES SALMONELLA TYPHIMURIUM, Strain/Indicator: TA97, Metabolic Activation: NONE, Method: FLUCTUATION TEST): active; positive | mutagenic call (Test System: AMES SALMONELLA TYPHIMURIUM, Strain/Indicator: TA98(1,8-DNP6), Metabolic Activation: NONE, Method: STANDARD PLATE): active; positive | mutagenic call (Test System: AMES SALMONELLA TYPHIMURIUM, Strain/Indicator: TA98(1,8-DNP6), Metabolic Activation: RAT, LIVER, S-9, 3-METHYLCHOLANTHRENE, Method: STANDARD PLATE): active; positive | mutagenic call (Test System: AMES SALMONELLA TYPHIMURIUM, Strain/Indicator: TA98(NR), Metabolic Activation: NONE, Method: STANDARD PLATE): active; positive | mutagenic call (Test System: AMES SALMONELLA TYPHIMURIUM, Strain/Indicator: TA98(NR), Metabolic Activation: RAT, LIVER, S-9, 3-METHYLCHOLANTHRENE, Method: STANDARD PLATE): active; positive | mutagenic call (Test System: AMES SALMONELLA TYPHIMURIUM, Strain/Indicator: TA98, Metabolic Activation: HAMSTER, LIVER, S-9, AROCLOR 1254 (10%), Method: PREINCUBATION): active; positive | mutagenic call (Test System: AMES SALMONELLA TYPHIMURIUM, Strain/Indicator: TA98, Metabolic Activation: HAMSTER, LIVER, S-9, AROCLOR 1254, Method: PREINCUBATION): active; positive | mutagenic call (Test System: AMES SALMONELLA TYPHIMURIUM, Strain/Indicator: TA98, Metabolic Activation: NONE, Method: PREINCUBATION): active; positive | mutagenic call [1]: active; positive | mutagenic call (Test System: AMES SALMONELLA TYPHIMURIUM, Strain/Indicator: TA98, Metabolic Activation: RAT LIVER S-9, AROCLOR 1254, Method: STANDARD PLATE): active; positive | mutagenic call (Test System: AMES SALMONELLA TYPHIMURIUM, Strain/Indicator: TA98, Metabolic Activation: RAT, LIVER, S-9, 3-METHYLCHOLANTHRENE, Method: STANDARD PLATE): active; positive | mutagenic call (Test System: AMES SALMONELLA TYPHIMURIUM, Strain/Indicator: TA98, Metabolic Activation: RAT, LIVER, S-9, AROCLOR 1254 (10%), Method: PREINCUBATION): active; positive | mutagenic call (Test System: AMES SALMONELLA TYPHIMURIUM, Strain/Indicator: TA98, Metabolic Activation: RAT, LIVER, S-9, AROCLOR 1254, Method: PREINCUBATION): active; positive | mutagenic call (Test System: AMES SALMONELLA TYPHIMURIUM, Strain/Indicator: TA98, Metabolic Activation: RAT, LIVER, S-9, KC500 OR PHENOBARBITAL, Method: LIQUID SUSPENSION): active; positive | mutagenic call (Test System: AMES SALMONELLA TYPHIMURIUM, Strain/Indicator: TA100, Metabolic Activation: HAMSTER, LIVER, S-9, AROCLOR 1254 (10%), Method: PREINCUBATION): active; positive | mutagenic call (Test System: AMES SALMONELLA TYPHIMURIUM, Strain/Indicator: TA100, Metabolic Activation: HAMSTER, LIVER, S-9, AROCLOR 1254, Method: PREINCUBATION): active; positive | mutagenic call (Test System: AMES SALMONELLA TYPHIMURIUM, Strain/Indicator: TA100, Metabolic Activation: NONE, Method: PREINCUBATION): active; positive | mutagenic call (Test System: AMES SALMONELLA TYPHIMURIUM, Strain/Indicator: TA100, Metabolic Activation: RAT, LIVER, S-9, AROCLOR 1254 (10%), Method: PREINCUBATION): active; positive | mutagenic call (Test System: AMES SALMONELLA TYPHIMURIUM, Strain/Indicator: TA100, Metabolic Activation: RAT, LIVER, S-9, AROCLOR 1254, Method: PREINCUBATION): active; positive | mutagenic call (Test System: AMES SALMONELLA TYPHIMURIUM, Strain/Indicator: TA100, Metabolic Activation: RAT, LIVER, S-9, KC500 OR PHENOBARBITAL, Method: LIQUID SUSPENSION): active; positive | mutagenic call (Test System: AMES SALMONELLA TYPHIMURIUM, Strain/Indicator: TA102, Metabolic Activation: NONE, Method: STANDARD PLATE): active; positive | mutagenic call (Test System: AMES SALMONELLA TYPHIMURIUM, Strain/Indicator: TA102, Metabolic Activation: RAT LIVER S-9, AROCLOR 1254, Method: STANDARD PLATE): active; positive | mutagenic call (Test System: AMES SALMONELLA TYPHIMURIUM, Strain/Indicator: TA1535, Metabolic Activation: HAMSTER, LIVER, S-9, AROCLOR 1254 (10%), Method: PREINCUBATION): active; positive | mutagenic call (Test System: AMES SALMONELLA TYPHIMURIUM, Strain/Indicator: TA1535, Metabolic Activation: HAMSTER, LIVER, S-9, AROCLOR 1254, Method: PREINCUBATION): active; positive | mutagenic call (Test System: AMES SALMONELLA TYPHIMURIUM, Strain/Indicator: TA1535, Metabolic Activation: NONE, Method: PREINCUBATION): inactive; negative | mutagenic call (Test System: AMES SALMONELLA TYPHIMURIUM, Strain/Indicator: TA1535, Metabolic Activation: RAT, LIVER, S-9, AROCLOR 1254 (10%), Method: PREINCUBATION): active; positive | mutagenic call (Test System: AMES SALMONELLA TYPHIMURIUM, Strain/Indicator: TA1535, Metabolic Activation: RAT, LIVER, S-9, AROCLOR 1254, Method: PREINCUBATION): active; positive | mutagenic call (Test System: AMES SALMONELLA TYPHIMURIUM, Strain/Indicator: TA1537, Metabolic Activation: RAT, LIVER, S-9, AROCLOR 1254, Method: PREINCUBATION): inactive; negative | mutagenic call (Test System: E. COLI, Strain/Indicator: EE97, Metabolic Activation: NONE, Method: FLUCTUATION TEST): active; positive | mutagenic call (Test System: E. COLI, Strain/Indicator: WP2, Metabolic Activation: NONE, Method: FLUCTUATION TEST): active; positive | mutagenic call (Test System: E. COLI, Strain/Indicator: WP2, Metabolic Activation: NONE, Method: SPOT): active; positive | mutagenic call (Test System: E. COLI, Strain/Indicator: WP2, Metabolic Activation: NONE, Method: STANDARD PLATE): active; positive | mutagenic call (Test System: E. COLI, Strain/Indicator: WP2 UVRA, Metabolic Activation: NONE, Method: FLUCTUATION): active; positive | mutagenic call (Test System: E. COLI, Strain/Indicator: WP2 UVRA, Metabolic Activation: NONE, Method: SPOT): active; positive | mutagenic call [2]: active; positive | mutagenic call (Test System: MOUSE LYMPHOMA, Strain/Indicator: L5178Y (TK+/TK-), Metabolic Activation: NONE, Method: SUSPENSION/PLATE): active; positive

[Cl][Cu][Cl]
mutagenic call (Test System: E. COLI, Strain/Indicator: WP2 UVRA, Metabolic Activation: NONE, Method: SPOT TEST): active; positive | mutagenic call [2]: active; positive

O[C@H]1C=Cc2c(ccc3cc4c(ccc5ccccc54)cc23)[C@@H]1O
mutagenic call (Test System: AMES SALMONELLA TYPHIMURIUM, Strain/Indicator: TA100, Metabolic Activation: RAT, LIVER, S-9, AROCLOR 1254, Method: STANDARD PLATE): active; positive
